Laboratory results reported in patent publication US8106065B2, “Antitussive agent” (Toray Industries, Inc., priority 2005, dated 2012).
Counter-ions that a name gives are not always drawn.

Tested on: coughing induced by citric acid
Assay: Effect on guinea pig coughing models induced by citric acid
Type: in vivo
Conditions: s.c.; for antitussive effect (number of coughs): Comparative Example 1; for effects for suppressing coughs in comparison to the cough number of the pathosis-induced group: Example 3, 0.1 mg/kg, p<0.05 t-Test
Text: The fact that the morphinan derivatives having the nitrogen-containing cyclic substituent, represented by Formula (I) and the pharmaceutically acceptable acid addition salts thereof are effective for the therapy of coughing may be confirmed by showing inhibitory action against coughing of a guinea pig, which coughing has been induced by administering citric acid to the guinea pig. The inhibitory action against the coughing induced by citric acid administration may be confirmed by the method described in the Examples, but the method is not restricted thereto.
A solution of test substance, a solution of positive control substance (codeine phosphate) or the administration solvent was subcutaneously administered to 6 week-old Hartley guinea pigs at a volume of 0.1 mL/100 g. After leaving the guinea pigs to stand for 25 minutes, they were retained in acrylic chambers for cough detection and the chambers were set to a measurement equipment. Thirty minutes after the subcutaneous administration of the test substance, the nebulizer was turned on and 100 mM citric acid solution, a cough inducer, was atomized and sprayed to the face of each guinea pig for a period of 15 minutes (velocity: 50 mm/min). A minipolygraph was used for recording, and the respiratory waveform within the period of 15 minutes was recorded. A signal when a large and acute change of flow rate compared to the respiratory waveform occurred independently was considered as a cough, and marked on the recording sheet. The marking was conducted while recording the respiratory waveform. When a large and continuous amplitude arose by struggling, the amplitude was distinguished by noting that it was caused by struggling. Since some coughings cause just before, and/or between struggling, the recording sheet and the motion of the guinea pig were observed as simultaneously as possible.

`O=C1c2ccccc2C(=O)N1[C@@H]1CC[C@@]2(O)[C@H]3Cc4ccc(O)c5c4[C@@]2(CCN3CC2CC2)[C@H]1O5` [Compound 1, N-(17-cyclopropylmethyl-4,5α-epoxy-3,14-dihydroxy-morphinan-6β-yl)-phthalimide] was tested, and the “effect for suppressing coughs in comparison to the cough number of the pathosis-induced group” value (Example 1, 1 mg/kg, 100 mM citric acid spray 30 min after dosing, p<0.01, n=7) was “approximately 94%” and the “effect for suppressing coughs in comparison to the cough number of the pathosis-induced group” value (Example 2, 0.003 mg/kg, p<0.025 1 tailed-Shirley-Williams-Test, n=3) was “approximately 50%”.

`Oc1ccc2c3c1O[C@H]1[C@H](N4CCCC4)CC[C@@]4(O)[C@@H](C2)N(CC2CC2)CC[C@]314` [Compound 2, 17-cyclopropylmethyl-4,5α-epoxy-6β-(pyrrolidine-1-yl)-morphinan-3,14-diol.tartaric acid salt] was tested, and the “antitussive effect (number of coughs)” value (10 mg/kg) was “no antitussive effect was observed”.

With `O=C1C2=C(CCCC2)C(=O)N1[C@@H]1CC[C@@]2(O)[C@H]3Cc4ccc(O)c5c4[C@@]2(CCN3CC2CC2)[C@H]1O5` [Compound 3, N-(17-cyclopropylmethyl-4,5α-epoxy-3,14-dihydroxy-morphinan-6β-yl)-3,4,5,6-tetrahydrophthalimide.tartaric acid salt] the “effects for suppressing coughs in comparison to the cough number of the pathosis-induced group” value (from here on “effects for suppressing coughs”) (n=3) was “approximately 29%”.

With `O=C1c2ccccc2CN1[C@@H]1CC[C@@]2(O)[C@H]3Cc4ccc(O)c5c4[C@@]2(CCN3CC2CC2)[C@H]1O5` [Compound 4, 2-(7-cyclopropylmethyl-4,5α-epoxy-3,14-dihydroxy-morphinan-6β-yl)-2,3-dihydro-isoindol-1-one-tartaric acid salt] the “effects for suppressing coughs” value (n=3) was ~25%.

`O=C1c2ccccc2S(=O)(=O)N1[C@@H]1CC[C@@]2(O)[C@H]3Cc4ccc(O)c5c4[C@@]2(CCN3CC2CC2)[C@H]1O5` [Compound 5, N-(17-cyclopropylmethyl-4,5α-epoxy-3,14-dihydroxy-morphinan-6β-yl)-O-sulfonbenzoic acid imide-tartaric acid salt] was tested, and the “effects for suppressing coughs” value (n=3) was ~28%.

`O=C1C=CC(=O)N1[C@@H]1CC[C@@]2(O)[C@H]3Cc4ccc(O)c5c4[C@@]2(CCN3CC2CC2)[C@H]1O5` [Compound 6, N-(17-cyclopropylmethyl-4,5α-epoxy-3,14-dihydroxy-morphinan-6β-yl)-maleimide-tartaric acid salt] was tested, and the “antitussive effect (number of coughs)” value (1 mg/kg) was “no antitussive effect was observed”.

For `COc1ccc2c3c1O[C@H]1[C@@H](O)C=C[C@H]4[C@@H](C2)N(C)CC[C@@]341` [codeine phosphate, reference compound], the “effect for suppressing coughs” value (Example 1, 10 mg/kg, 100 mM citric acid spray 30 min after dosing, vs pathosis-induced group, p<0.05, n=7) was “approximately 51%” and the “effect for suppressing coughs” value (Example 2, 10 mg/kg, p<0.05 Welch-Test, n=3) was “approximately 37%”.
